Reference: US20240199546A1, “INHIBITORS OF SOLUTE CARRIER FAMILY 6A MEMBER 19 (SLC6A19) AND METHODS OF USE THEREOF” (Maze Therapeutics, Inc., priority 2022, published 2024)

Experiments:
human SLC6A19 and TMEM27 [1] = target: T1, human SLC6A19 and TMEM27 (Homo sapiens, UniProt Q695T7); assay: Radiolabelled (3H) leucine uptake in CHO cells with doxycycline-inducible expression of human SLC6A19 and TMEM27 (Example B-1); assay type: cell-based; details: CHO cells with doxycycline-inducible expression of human SLC6A19 and TMEM27, read-out: SLC6A19_Radioligand Uptake Assay IC50
T1 construct: expressed in transfected cells
T1 sequence (Q695T7 1-634): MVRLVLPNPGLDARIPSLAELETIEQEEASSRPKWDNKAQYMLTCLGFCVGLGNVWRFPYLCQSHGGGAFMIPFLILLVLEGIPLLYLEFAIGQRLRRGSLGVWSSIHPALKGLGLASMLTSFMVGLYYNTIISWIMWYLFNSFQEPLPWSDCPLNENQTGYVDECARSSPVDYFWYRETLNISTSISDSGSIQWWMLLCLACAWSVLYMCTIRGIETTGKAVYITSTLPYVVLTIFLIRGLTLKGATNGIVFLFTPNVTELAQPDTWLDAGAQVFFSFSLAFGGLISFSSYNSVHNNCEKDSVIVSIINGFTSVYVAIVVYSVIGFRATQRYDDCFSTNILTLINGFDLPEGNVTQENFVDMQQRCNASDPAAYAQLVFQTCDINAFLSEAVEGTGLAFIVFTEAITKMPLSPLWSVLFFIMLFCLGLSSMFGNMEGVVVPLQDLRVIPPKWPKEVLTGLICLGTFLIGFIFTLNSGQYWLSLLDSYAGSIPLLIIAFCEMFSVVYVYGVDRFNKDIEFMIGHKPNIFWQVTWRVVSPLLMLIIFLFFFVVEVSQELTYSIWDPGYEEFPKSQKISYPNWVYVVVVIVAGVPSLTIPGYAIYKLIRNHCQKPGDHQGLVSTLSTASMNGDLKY
T1 sequence (Q9HBJ8 15-222 partner): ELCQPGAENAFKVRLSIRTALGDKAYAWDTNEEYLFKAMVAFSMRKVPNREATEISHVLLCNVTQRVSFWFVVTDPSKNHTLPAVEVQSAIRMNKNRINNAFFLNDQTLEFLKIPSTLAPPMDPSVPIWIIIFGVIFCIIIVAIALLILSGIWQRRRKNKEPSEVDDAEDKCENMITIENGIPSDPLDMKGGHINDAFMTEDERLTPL
Outline: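 CHO cells were induced with doxycycline for 18 h at 37 °C, washed in HBSS, then exposed to compounds for 1 h: 8-point, 3-fold dilutions in duplicate, 0.5% DMSO final. Uptake measured by scintillation counting after 2 h shaking. Activity normalized with positive control as 0% and DMSO as 100%.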

human SLC6A19 and TMEM27 [2] = target: T1, human SLC6A19 and TMEM27; assay: 13C6,15N-isoleucine uptake in CHO cells with doxycycline-inducible expression of human SLC6A19 and TMEM27, RapidFire mass spectrometry (Example B-2); assay type: cell-based; details: read-out: SLC6A19_RapidFire Uptake Assay IC50
Outline: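 CHO cells induced overnight with doxycycline to express human SLC6A19 plus TMEM27; 20 min preincubation with compound (10-point 2-fold series, duplicate) at 37 °C in HEPES buffer pH 7.2, then 20 min with 13C6,15N-isoleucine. Intracellular label quantified by RapidFire MS against 13C-leucine standard; positive control defined 100% inhibition.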

IC50 (human SLC6A19 and TMEM27 [1]) [nM] | IC50 (human SLC6A19 and TMEM27 [2]) [nM] | SMILES
244 | 343 | O=C(NCc1cc2cc(F)c(OCc3ccon3)cc2[nH]1)C1CCC1 [Compound 431, N-((5-fluoro-6-(isoxazol-3-ylmethoxy)-1H-indol-2-yl)methyl)cyclobutanecarboxamide]
145 | 63.6 | CC1(C(=O)NCc2cc3cc(Cl)c(NCc4cscn4)cc3[nH]2)CC1 [Compound 452, N-((5-chloro-6-((thiazol-4-ylmethyl)amino)-1H-indol-2-yl)methyl)-1-methylcyclopropane-1-carboxamide]
2700 | 989 | CC1(C(=O)NCc2cc3cc(Cl)c(OCc4ccc5ccoc5c4)cc3[nH]2)CC1 [Compound 461, N-((6-(benzofuran-6-ylmethoxy)-5-chloro-1H-indol-2-yl)methyl)-1-methylcyclopropane-1-carboxamide]
304 | 397 | O=C(NCc1cc2cc(Cl)c(NCc3cscn3)cc2[nH]1)N1CCC1 [Compound 472, N-((5-chloro-6-((thiazol-4-ylmethyl)amino)-1H-indol-2-yl)methyl)azetidine-1-carboxamide]
416 | 172 | O=C(NCc1cc2cc(C(F)(F)F)c(OCc3cscn3)cc2[nH]1)N1CCC1 [Compound 478, N-((6-(thiazol-4-ylmethoxy)-5-(trifluoromethyl)-1H-indol-2-yl)methyl)azetidine-1-carboxamide]
318 | 297 | Cc1cc(COc2cc3[nH]c(CNC(=O)N4CCC4)cc3cc2F)on1 [Compound 481, N-((5-fluoro-6-((3-methylisoxazol-5-yl)methoxy)-1H-indol-2-yl)methyl)azetidine-1-carboxamide]

Further lines, the molecule ahead of its results:

SMILES | IC50 (human SLC6A19 and TMEM27 [1]) [nM] | IC50 (human SLC6A19 and TMEM27 [2]) [nM]
CC(C)(C)C(=O)NCc1cc2cc(Cl)c(OCc3cscn3)cc2[nH]1 [Compound 432, N-((5-chloro-6-(thiazol-4-ylmethoxy)-1H-indol-2-yl)methyl)pivalamide] | 384 | 253
Cn1ncc(COc2cc3[nH]c(CNC(=O)C4CC4)cc3cc2F)n1 [Compound 433, N-((5-fluoro-6-((2-methyl-2H-1,2,3-triazol-4-yl)methoxy)-1H-indol-2-yl)methyl)cyclopropanecarboxamide] | 566 | 1500
CCC(=O)NCc1cc2cc(Cl)c(OCc3cc(C)no3)cc2[nH]1 [Compound 438, N-((5-chloro-6-((3-methylisoxazol-5-yl)methoxy)-1H-indol-2-yl)methyl)propionamide] | 70.9 | 26.8
CC1(C(=O)NCc2cc3cc(F)c(OCc4ccc5ccoc5c4)cc3[nH]2)CC1 [Compound 460, N-((6-(benzofuran-6-ylmethoxy)-5-fluoro-1H-indol-2-yl)methyl)-1-methylcyclopropane-1-carboxamide] | 1360 | 732
O=C(NCc1cc2cc(F)c(NCc3ccon3)cc2[nH]1)N1CCC1 [Compound 470, N-((5-fluoro-6-((isoxazol-3-ylmethyl)amino)-1H-indol-2-yl)methyl)azetidine-1-carboxamide] | 1310 | 1820
O=C(NCc1cc2cc(F)c(NCc3ccon3)cc2[nH]1)N1CCCC1 [Compound 471, N-((5-fluoro-6-((isoxazol-3-ylmethyl)amino)-1H-indol-2-yl)methyl)pyrrolidine-1-carboxamide] | 599 | 1090
Cc1cc2c(Cl)c(CNC(=O)N3CCC3)[nH]c2cc1OCc1cscn1 [Compound 475, N-((3-chloro-5-methyl-6-(thiazol-4-ylmethoxy)-1H-indol-2-yl)methyl)azetidine-1-carboxamide] | 432 | 138
O=C(NCc1cc2cc(C(F)(F)F)c(OCc3cscn3)cc2[nH]1)N1CCCC1 [Compound 479, N-((6-(thiazol-4-ylmethoxy)-5-(trifluoromethyl)-1H-indol-2-yl)methyl)pyrrolidine-1-carboxamide] | 1670 | 545
